Source: patent publication US11912703B2, “6-azaindole compounds” (BRISTOL-MYERS SQUIBB COMPANY, priority 2017, dated 2024)
Like-named read-outs stand apart in the source and are kept apart here.

How the values were obtained:
human TLR9 = human TLR9 (Homo sapiens (Human), UniProt Q9NR96); assay: TLR9 inhibition reporter assay (HEK-Blue SEAP);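 note: SEAP driven by IFN-β minimal promoter carrying five NF-κB and AP-1 sites, 22 h at 37 °C, compounds 0.05 nM–50 µM, inhibition scaled between agonist-plus-DMSO and reference-inhibitor wells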
human TLR8 = human TLR8 (Homo sapiens (Human), UniProt Q9NR97); assay: TLR8 inhibition reporter assay (HEK-Blue SEAP);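 note: SEAP driven by IFN-β minimal promoter with five NF-κB and AP-1 sites, compounds tested 0.05 nM to 50 µM, 22 h incubation, inhibition relative to agonist plus DMSO wells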
human TLR7 = human TLR7 (Homo sapiens (Human), UniProt Q9NYK1); assay: TLR7 inhibition reporter assay (HEK-Blue SEAP); assay type: cell-based; conditions: HEK-Blue cells overexpressing human TLR7, gardiquimod 7.5 μM stimulation
[1] = read-out: TLR9 IC50; HEK-Blue cells overexpressing human TLR9, ODN2006 5 nM stimulation, SEAP reporter
[2] = read-out: TLR8 IC50; HEK-Blue cells overexpressing human TLR8, R848 15.9 μM stimulation, SEAP reporter
[3] = read-out: TLR9 IC50; HEK-Blue cells overexpressing human TLR9; ODN2006 5 nM stimulation; SEAP reporter
[4] = read-out: TLR8 IC50; HEK-Blue cells overexpressing human TLR8; R848 15.9 μM stimulation; SEAP reporter

human TLR9, sequence (Q9NR96 26-1032): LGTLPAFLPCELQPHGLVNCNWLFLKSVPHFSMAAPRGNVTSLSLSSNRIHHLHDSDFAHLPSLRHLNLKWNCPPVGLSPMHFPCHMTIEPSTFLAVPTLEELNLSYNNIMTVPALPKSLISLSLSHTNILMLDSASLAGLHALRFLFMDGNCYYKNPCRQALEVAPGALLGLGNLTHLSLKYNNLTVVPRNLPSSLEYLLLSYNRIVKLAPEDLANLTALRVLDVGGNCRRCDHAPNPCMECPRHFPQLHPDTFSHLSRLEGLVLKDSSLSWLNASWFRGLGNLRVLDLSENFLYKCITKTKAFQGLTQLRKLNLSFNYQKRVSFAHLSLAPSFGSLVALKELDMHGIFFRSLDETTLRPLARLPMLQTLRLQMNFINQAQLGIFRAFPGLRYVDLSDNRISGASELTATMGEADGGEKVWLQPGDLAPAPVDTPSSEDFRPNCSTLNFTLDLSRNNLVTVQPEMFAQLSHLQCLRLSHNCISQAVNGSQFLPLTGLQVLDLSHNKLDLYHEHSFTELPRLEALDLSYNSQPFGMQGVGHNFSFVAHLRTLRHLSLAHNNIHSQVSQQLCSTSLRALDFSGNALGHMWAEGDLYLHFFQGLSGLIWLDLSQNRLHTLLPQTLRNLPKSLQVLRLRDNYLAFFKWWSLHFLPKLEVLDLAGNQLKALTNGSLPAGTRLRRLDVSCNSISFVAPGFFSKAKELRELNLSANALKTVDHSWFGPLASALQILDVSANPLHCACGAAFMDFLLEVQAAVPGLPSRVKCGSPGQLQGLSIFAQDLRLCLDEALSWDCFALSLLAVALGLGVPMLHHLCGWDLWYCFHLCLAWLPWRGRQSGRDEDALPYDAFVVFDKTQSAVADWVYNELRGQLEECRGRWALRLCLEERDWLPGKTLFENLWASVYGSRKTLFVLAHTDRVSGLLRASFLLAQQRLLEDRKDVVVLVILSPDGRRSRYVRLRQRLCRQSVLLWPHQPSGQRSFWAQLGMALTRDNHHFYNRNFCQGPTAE
human TLR8, sequence (Q9NR97 27-1041): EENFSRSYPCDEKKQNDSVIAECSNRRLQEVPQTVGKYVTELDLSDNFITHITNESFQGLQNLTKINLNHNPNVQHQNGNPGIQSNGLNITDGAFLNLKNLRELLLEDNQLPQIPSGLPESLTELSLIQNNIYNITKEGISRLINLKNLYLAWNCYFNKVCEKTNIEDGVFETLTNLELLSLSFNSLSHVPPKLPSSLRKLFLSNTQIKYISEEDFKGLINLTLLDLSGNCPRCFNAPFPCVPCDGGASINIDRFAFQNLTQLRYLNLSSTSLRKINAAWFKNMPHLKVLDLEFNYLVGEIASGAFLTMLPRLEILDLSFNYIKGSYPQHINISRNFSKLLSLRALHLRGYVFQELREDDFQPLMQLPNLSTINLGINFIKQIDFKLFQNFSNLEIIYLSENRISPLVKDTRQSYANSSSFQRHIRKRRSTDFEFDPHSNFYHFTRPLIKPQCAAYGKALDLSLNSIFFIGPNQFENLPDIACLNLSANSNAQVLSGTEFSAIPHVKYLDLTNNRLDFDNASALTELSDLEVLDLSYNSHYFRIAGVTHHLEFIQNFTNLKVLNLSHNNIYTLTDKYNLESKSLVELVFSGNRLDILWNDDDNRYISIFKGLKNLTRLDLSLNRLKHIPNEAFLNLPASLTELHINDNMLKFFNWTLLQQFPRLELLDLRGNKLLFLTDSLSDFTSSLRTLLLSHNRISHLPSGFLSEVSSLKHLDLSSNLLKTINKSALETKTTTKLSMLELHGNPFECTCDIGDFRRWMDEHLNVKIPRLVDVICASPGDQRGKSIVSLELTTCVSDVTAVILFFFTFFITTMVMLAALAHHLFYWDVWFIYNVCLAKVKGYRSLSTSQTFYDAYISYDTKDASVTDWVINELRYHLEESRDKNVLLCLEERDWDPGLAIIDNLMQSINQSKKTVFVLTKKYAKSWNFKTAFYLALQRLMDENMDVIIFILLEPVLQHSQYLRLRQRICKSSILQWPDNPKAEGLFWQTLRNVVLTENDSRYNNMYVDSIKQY
human TLR7, sequence (Q9NYK1 27-1049): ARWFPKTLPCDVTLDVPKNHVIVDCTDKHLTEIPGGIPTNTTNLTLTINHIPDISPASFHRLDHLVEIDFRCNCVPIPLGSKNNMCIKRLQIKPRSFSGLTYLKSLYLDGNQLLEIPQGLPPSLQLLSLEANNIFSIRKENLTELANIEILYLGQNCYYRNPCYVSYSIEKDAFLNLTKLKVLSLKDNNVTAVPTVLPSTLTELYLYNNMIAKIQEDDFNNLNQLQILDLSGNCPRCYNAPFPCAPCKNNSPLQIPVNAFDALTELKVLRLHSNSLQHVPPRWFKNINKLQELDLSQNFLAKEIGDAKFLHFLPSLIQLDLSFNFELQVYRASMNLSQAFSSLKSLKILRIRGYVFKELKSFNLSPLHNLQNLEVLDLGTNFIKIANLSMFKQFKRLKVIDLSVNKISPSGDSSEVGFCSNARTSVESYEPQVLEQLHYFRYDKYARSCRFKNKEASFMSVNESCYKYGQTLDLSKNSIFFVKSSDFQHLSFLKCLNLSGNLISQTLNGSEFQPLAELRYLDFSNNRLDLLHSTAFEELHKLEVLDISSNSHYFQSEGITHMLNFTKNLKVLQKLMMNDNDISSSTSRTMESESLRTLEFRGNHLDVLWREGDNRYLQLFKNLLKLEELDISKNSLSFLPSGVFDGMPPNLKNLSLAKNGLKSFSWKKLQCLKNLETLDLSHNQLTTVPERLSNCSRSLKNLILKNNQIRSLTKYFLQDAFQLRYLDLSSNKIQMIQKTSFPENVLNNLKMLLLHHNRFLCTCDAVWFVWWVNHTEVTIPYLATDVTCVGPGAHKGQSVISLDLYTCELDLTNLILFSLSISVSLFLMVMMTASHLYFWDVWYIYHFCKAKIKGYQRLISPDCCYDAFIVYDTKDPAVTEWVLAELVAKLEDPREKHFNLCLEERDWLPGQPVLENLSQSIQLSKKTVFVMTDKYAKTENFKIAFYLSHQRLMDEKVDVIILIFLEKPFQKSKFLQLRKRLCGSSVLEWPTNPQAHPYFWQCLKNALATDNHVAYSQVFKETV

SMILES	IC50 (human TLR9; [1])	IC50 (human TLR8; [2])	IC50 (human TLR7)	IC50 (human TLR9; [3])	IC50 (human TLR8; [4])
Cc1c(-c2[nH]c3cnc(C4CCC(NC56CC(C5)C6)CC4)c(F)c3c2C(C)C)cn2ncnc2c1C (stereo not drawn) [Example 238]	28500 nM	21 nM	62 nM	–	–
Cc1c(-c2[nH]c3cnc(C4CCC(NCC5(C)COC5)CC4)c(F)c3c2C(C)C)cn2ncnc2c1C (stereo not drawn) [Example 171]	1960 nM	0.12 nM	0.43 nM	–	–
CNC(=O)CN1CCC(c2ncc3[nH]c(-c4cc(OC)c5ncnn5c4)c(C(C)C)c3c2C)CC1 [Example 2, 2-(4-(3-isopropyl-2-(8-methoxy-[1,2,4]triazolo[1,5-a]pyridin-6-yl)-4-methyl-1H-pyrrolo[2,3-c]pyridin-5-yl)piperidin-1-yl)-N-methylacetamide]	398 nM	14 nM	1.6 nM	–	–
COc1cc(-c2[nH]c3cnc(C4CCC(NCC(C)(C)C)CC4)c(F)c3c2C(C)C)cn2ncnc12 (stereo not drawn) [Example 162]	2150 nM	1 nM	1.3 nM	–	–
COc1cc(-c2[nH]c3cnc(C4CCC(N5CC6(COC6)C5)C4)cc3c2C(C)C)cn2ncnc12 (stereo not drawn) [Example 208]	276 nM	16 nM	12 nM	–	–
Cc1c(-c2[nH]c3cnc(C4CCC(NC[C@@H](F)C(C)(C)O)CC4)c(F)c3c2C(C)C)cn2ncnc2c1C (stereo partly drawn) [Example 175]	7940 nM	6.4 nM	23 nM	–	–
Cc1cc(-c2[nH]c3cnc(N4CCC(NC(C)C)CC4)c(F)c3c2C(C)C)cn2ncnc12 [Example 219]	–	–	0.85 nM	1890 nM	0.56 nM
COc1cc(-c2[nH]c3cnc(C4CCC(NC5CCOCC5)CC4)c(C)c3c2C(C)C)cn2ncnc12 (stereo not drawn) [Example 176]	325 nM	18 nM	16 nM	–	–
COc1cc(-c2[nH]c3cnc(N4CCC(NCC5(C)COC5)CC4)c(C)c3c2C(C)C)cn2ncnc12 [Example 147]	2060 nM	0.27 nM	0.62 nM	–	–
COc1cc(-c2[nH]c3cnc(N4CCC(N5CCC5)CC4)c(C)c3c2C(C)C)cn2ncnc12 [Example 87]	701 nM	1 nM	0.33 nM	–	–
Cc1c(-c2[nH]c3cnc(N4CCC(NC5CCOCC5)CC4)c(C)c3c2C(C)C)cn2ncnc2c1C [Example 205]	600 nM	0.55 nM	1.2 nM	–	–
COc1cc(-c2[nH]c3cnc(C4CCC(NC5COC5)CC4)c(F)c3c2C(C)C)cn2ncnc12 (stereo not drawn) [Example 224]	–	–	0.4 nM	679 nM	0.62 nM
Cc1c(-c2[nH]c3cnc(C4CCC(NCC(C)(C)O)CC4)c(C)c3c2C(C)C)cn2ncnc2c1C (stereo not drawn) [Example 122]	400 nM	10 nM	14 nM	–	–
CNC1CCN(c2ncc3[nH]c(-c4cc(OC)c5ncnn5c4)c(C(C)C)c3c2F)CC1 [Example 191]	3500 nM	1.1 nM	0.91 nM	–	–
Cc1c(-c2[nH]c3cnc(C4CCC(NC(C)C)CC4)c(F)c3c2C(C)C)cn2ncnc2c1C (stereo not drawn) [Example 85]	924 nM	1.1 nM	2.6 nM	–	–
Cc1c(-c2[nH]c3cnc(C4CCC(NCC(C)(C)C)CC4)c(C)c3c2C(C)C)cn2ncnc2c1C (stereo not drawn) [Example 247]	718 nM	10 nM	16 nM	–	–
Cc1cc(-c2[nH]c3cnc(C4CCC(NC5CCOCC5)CC4)c(F)c3c2C(C)C)cn2ncnc12 (stereo not drawn) [Example 110]	1160 nM	1.3 nM	2 nM	–	–
Cc1cc(-c2[nH]c3cnc(N4CCC(NC5COC5)CC4)c(F)c3c2C(C)C)cn2ncnc12 [Example 255]	14500 nM	0.49 nM	0.5 nM	–	–
COc1cc(-c2[nH]c3cnc(C4CCN(C(C)C)CC4)c(F)c3c2C(C)C)cn2ncnc12 [Example 18]	1790 nM	2.6 nM	0.76 nM	–	–
Cc1c(-c2[nH]c3cnc(N4CCC(NCC(C)(C)C)CC4)c(F)c3c2C(C)C)cn2ncnc2c1C [Example 167]	4330 nM	0.49 nM	2.6 nM	–	–
Cc1cc(-c2[nH]c3cnc(C4CCC(N(C)C(C)C)CC4)c(F)c3c2C(C)C)cn2ncnc12 (stereo not drawn) [Example 108]	2760 nM	4 nM	2.1 nM	–	–
Cc1cc(-c2[nH]c3cnc(N4CCC(NC5CCOCC5)CC4)c(F)c3c2C(C)C)cn2ncnc12 [Example 220]	–	–	0.74 nM	4540 nM	0.35 nM

The remaining lines, values ahead:

IC50 (human TLR9; [1])	IC50 (human TLR8; [2])	IC50 (human TLR7)	IC50 (human TLR9; [3])	IC50 (human TLR8; [4])	SMILES
8700 nM	0.38 nM	2.7 nM	–	–	COc1cc(-c2[nH]c3cnc(N4CCN(CC(C)(C)O)CC4)c(F)c3c2C(C)C)cn2ncnc12 [Example 364]
39500 nM	1.1 nM	12 nM	–	–	Cc1c(-c2[nH]c3cnc(N4CCN(CC(=O)N(C)C)CC4)c(F)c3c2C(C)C)cn2ncnc2c1C [Example 428]
–	–	13 nM	47900 nM	3.5 nM	Cc1c(-c2[nH]c3cnc(N4CCN(CC(=O)N5CCOCC5)C[C@H]4C)c(F)c3c2C(C)C)cn2ncnc2c1C [Example 469]
494 nM	4.9 nM	3 nM	–	–	CNCC(=O)N1CCN(c2ncc3[nH]c(-c4cc(OC)c5ncnn5c4)c(C(C)C)c3c2Cl)CC1 [Example 291]
1730 nM	1.7 nM	10 nM	–	–	Cc1c(-c2[nH]c3cnc(N4CCN(C(=O)CN(C)C)CC4)c(C)c3c2C(C)C)cn2ncnc2c1C [Example 416, 1-(4-(2-(7,8-dimethyl-[1,2,4]triazolo[1,5-a]pyridin-6-yl)-3-isopropyl-4-methyl-1H-pyrrolo[2,3-c]pyridin-5-yl)piperazin-1-yl)-2-(dimethylamino)ethan-1-one]
36000 nM	6.4 nM	5.3 nM	–	–	Cc1cc(-c2[nH]c3cnc(N4CCC(N(C)CC(F)F)CC4)c(F)c3c2C(C)C)cn2ncnc12 [Example 257]
–	–	27 nM	> 50000 nM	2.7 nM	Cc1c(-c2[nH]c3cnc(N4CCN(C(=O)CN5CCOCC5)C[C@H]4C)c(F)c3c2C(C)C)cn2ncnc2c1C [Example 471]
258 nM	20 nM	4.5 nM	–	–	COc1cc(-c2[nH]c3cnc(C4CCC(NC(C)C)CC4)cc3c2C(C)C)cn2ncnc12 (stereo not drawn) [Example 323]
5590 nM	22 nM	33 nM	–	–	COc1cc(-c2[nH]c3cnc(N4CC5(CNC5)C4)c(F)c3c2C(C)C)cn2ncnc12 [Example 355, 6-(4-fluoro-3-isopropyl-5-(2,6-diazaspiro[3.3]heptan-2-yl)-1H-pyrrolo[2,3-c]pyridin-2-yl)-8-methoxy-[1,2,4]triazolo[1,5-a]pyridine]
265 nM	13 nM	5.5 nM	–	–	Cc1c(-c2[nH]c3cnc(C4CCC(NC(C)C)CC4)c(C)c3c2C(C)C)cn2ncnc2c1C (stereo not drawn) [Example 277]
790 nM	30 nM	3.9 nM	–	–	COCCNC1CCC(c2cc3c(C(C)C)c(-c4cn5ncnc5c(C)c4C)[nH]c3cn2)CC1 (stereo not drawn) [Example 347]
166 nM	47 nM	7.6 nM	–	–	COc1cc(-c2[nH]c3cnc(C4CCC(NC(C)C)CC4)cc3c2C(C)C)cn2ncnc12 (stereo not drawn) [Example 315]
837 nM	1.7 nM	1.4 nM	–	–	Cc1cc(-c2[nH]c3cnc(C4CCC(NCC(C)(C)C)CC4)c(F)c3c2C(C)C)cn2ncnc12 (stereo not drawn) [Example 260]
5820 nM	7.1 nM	8.1 nM	–	–	COc1cc(-c2[nH]c3cnc(N4CC5(C4)CN(C(C)C)C5)c(F)c3c2C(C)C)cn2ncnc12 [Example 373]
6000 nM	> 3120 nM	9.5 nM	–	–	COc1cc(-c2[nH]c3cnc(N4CC5(CN(CC6(C)COC6)C5)C4)c(F)c3c2C(C)C)cn2ncnc12 [Example 376]
> 50000 nM	48 nM	90 nM	–	–	Cc1c(-c2[nH]c3cnc(N4CC5(CN(CC(F)(F)F)C5)C4)c(F)c3c2C(C)C)cn2ncnc2c1C [Example 434]
> 50000 nM	19 nM	99 nM	–	–	Cc1c(-c2[nH]c3cnc(N4CC5(CN(CCS(C)(=O)=O)C5)C4)c(F)c3c2C(C)C)cn2ncnc2c1C [Example 396]
937 nM	4.8 nM	8.4 nM	–	–	Cc1c(-c2[nH]c3cnc(N4CC5(C4)CN(C4CCN(C(C)C)CC4)C5)c(F)c3c2C(C)C)cn2ncnc2c1C [Example 406]
16700 nM	1.9 nM	6.9 nM	–	–	Cc1c(-c2[nH]c3cnc(C4CCC(NC5COC5)CC4)c(F)c3c2C(C)C)cn2ncnc2c1C (stereo not drawn) [Example 267]
–	–	0.05 nM	10900 nM	0.05 nM	Cc1c(-c2[nH]c3cnc(N4CCN(C)C[C@H]4C)c(F)c3c2C(C)C)cn2ncnc2c1C [Example 454]
4060 nM	0.15 nM	2.3 nM	–	–	COc1cc(-c2[nH]c3cnc(N4CCN(CC5CC5)CC4)c(F)c3c2C(C)C)cn2ncnc12 [Example 390]
1100 nM	0.58 nM	0.79 nM	–	–	COc1cc(-c2[nH]c3cnc(N4CCC(N5CCOCC5)CC4)c(C)c3c2C(C)C)cn2ncnc12 [Example 278]
3630 nM	2.3 nM	4 nM	–	–	CCN1CC2(C1)CN(c1ncc3[nH]c(-c4cc(OC)c5ncnn5c4)c(C(C)C)c3c1F)C2 [Example 379]
786 nM	16 nM	3.9 nM	–	–	COc1cc(-c2[nH]c3cnc(C4CCN(C5COC5)CC4)cc3c2C(C)C)cn2ncnc12 [Example 306]
> 50000 nM	2.7 nM	2.5 nM	–	–	CNC(=O)CN1CCN(c2ncc3[nH]c(-c4cc(OC)c5ncnn5c4)c(C(C)C)c3c2F)CC1 [Example 359]
